One assay has as its system Imidazoline, I2. Nature of the assay: Radioligand displacement (Ricerca). The class given is binding, rat. The conditions noted are these: 10 μM. (Loss of bound radioactivity is the signal in a displacement assay; it reports binding, not function.)
Another assay deals with T1, GIRK1/2 (Homo sapiens, UniProt P48051+P48549).
T1 sequence (P48549 1-501): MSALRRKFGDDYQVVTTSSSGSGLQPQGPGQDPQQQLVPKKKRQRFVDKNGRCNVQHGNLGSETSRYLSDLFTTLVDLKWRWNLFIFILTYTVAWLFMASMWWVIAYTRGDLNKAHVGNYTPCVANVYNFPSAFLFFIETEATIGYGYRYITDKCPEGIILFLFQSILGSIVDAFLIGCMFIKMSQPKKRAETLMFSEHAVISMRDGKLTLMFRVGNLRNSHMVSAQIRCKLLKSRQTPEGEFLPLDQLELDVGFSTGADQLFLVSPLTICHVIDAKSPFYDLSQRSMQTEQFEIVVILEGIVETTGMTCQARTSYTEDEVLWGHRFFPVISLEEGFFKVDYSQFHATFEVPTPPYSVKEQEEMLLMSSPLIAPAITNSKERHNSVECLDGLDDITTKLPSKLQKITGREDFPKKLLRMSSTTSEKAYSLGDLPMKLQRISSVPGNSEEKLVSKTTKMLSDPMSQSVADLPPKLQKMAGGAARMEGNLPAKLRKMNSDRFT
T1 sequence (P48051 1-423): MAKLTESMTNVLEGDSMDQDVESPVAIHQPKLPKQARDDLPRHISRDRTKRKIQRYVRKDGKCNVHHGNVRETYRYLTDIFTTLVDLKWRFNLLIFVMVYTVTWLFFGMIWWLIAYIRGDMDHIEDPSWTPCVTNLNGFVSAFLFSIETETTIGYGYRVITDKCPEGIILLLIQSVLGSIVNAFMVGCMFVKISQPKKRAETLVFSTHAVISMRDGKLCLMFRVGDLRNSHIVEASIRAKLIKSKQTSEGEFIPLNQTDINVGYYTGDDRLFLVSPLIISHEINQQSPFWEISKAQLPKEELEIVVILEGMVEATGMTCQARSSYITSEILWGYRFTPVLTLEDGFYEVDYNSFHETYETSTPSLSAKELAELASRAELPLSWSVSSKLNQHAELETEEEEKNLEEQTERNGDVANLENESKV
Nature of the assay: Thallium flux, pertussis toxin-treated cells co-expressing mGlu8 and GIRK1/2. It counts as cell-based. Further details: host or cells: HEK-293. Particulars: 600 ng/ml pertussis toxin; VU0456810 10 μM, glutamate 100 μM. From the text: Cell Line Construction and Cell Culture. HEK-293 cells co-expressing human GIRK1/2 and rat mGlu8 were generated as previously described (Niswender et al., 2008). A HEK-293 cell line (ATCC, Manassas, Va.) expressing human GIRK1 and human GIRK2 was constructed by transfecting HEK-293 cells with GIRK1 and GIRK2 (Origene, Rockville, Md.) cloned into the pBudCE4.1 vector (Life Technologies, Carlsbad, Calif.) using FuGene 6 (Promega, Madison, Wis.) transfection reagent. Unless otherwise noted, other ion channel-expressing cells were prepared by transfecting HEK-293 cells with individual or combinations of subunits: GIRK1, pCMV6-A-BSD; GIRK2, pCMV6-A-puro; GIRK3, pCMV6-A-hygro; GIRK4, pCMV6-A-AC; Kv7.4, pIRESneo3. The Kir2.1 and hERG-expressing cell lines were made by transfecting T-REx-293 cells (Life Technologies, Carlsbad, Calif.) with Kir2.1 and Kv11.1, respectively, cloned into pcDNA5TO. Monoclonal cell lines were produced by limiting-dilution cloning of antibiotic-resistant cells and functional selection using the thallium flux assay described below. Unless otherwise noted, cells were maintained in Minimal Essential Medium, Alpha Medium (Mediatech, Manassas, Va.) supplemented with 10% fetal bovine serum (Sigma-Aldrich, Saint Louis, Mo.) and GlutaGro (Mediatech, Manassas, Va.), referred to henceforth as cell culture medium. […]

Data on one compound can be found in patent US9067894B1, “Compound, composition, and method of activating GIRK potassium channel and use of same for treating conditions of interest” (Vanderbilt University, priority 2013, dated 2015).

With `Cc1cc(NC(=O)Nc2ccc(F)c(F)c2)n(-c2ccccc2)n1` [VU0456810, 1-(3,4-difluorophenyl)-3-(3-methyl-1-phenyl-1H-pyrazol-5-yl)urea], the “% Inhibition” value with Imidazoline, I2 amounted to 20%. For the same compound, on GIRK1/2, the “effect of pertussis toxin treatment on evoked thallium flux” value is “unable to block”.

By % Inhibition is commonly meant the change of the read-out against control, counted positive when it falls. Higher therefore signals strong suppression.
